Experimental data as given in US20200297722A1, “pH-Modulated Formulations for Pulmonary Delivery” (GRIFOLS, S.A., priority 2009, published 2020).

What was measured:
[1] = pH 7.4 and 25° C.; cited from earlier work
[2] = aqueous solubility of gallium as a function of pH; assay type: physicochemical
Excerpt: Gallium is a semi-metallic element in group 13 (IIIa) of the periodic table. Gallium is trivalent in aqueous solution (Ga^3+). The free hydrated ion Ga^3+hydrolyzes nearly completely at pH values close to neutral, readily forming highly insoluble amorphous Ga(OH)3. In addition to precipitating as hydroxides and oxyhydroxides , Ga will also form highly insoluble phosphates at pH values close to neutral. L R Bernstein (1998) provides a brief review of the solution chemistry of gallium. […] At low and high pH values, gallium has many orders of magnitude greater solubility. […] This difference in solubility can be exploited in an inhalation product by formulating gallium or its salts (e.g., gallium nitrate) at a very low or very high pH.

[3] = calculated gallium concentration and precipitation in lung fluid after one AERx strip; parameters: species or system human
Excerpt: Thus, one would expect that there would be a depot-like effect in the lung in terms of the release of gallium from the solid state over time. This would result in a delayed absorption profile of gallium into the bloodstream, with a reduced CMAX and delayed TMAX. This would also reduce or eliminate side effects resulting from high systemic concentrations.

[4] = cited from earlier work
[5] = in lung fluid at ~pH 7.4, assumed deposition

[Ga] [gallium]
total aqueous solubility of gallium [1]: ~1 µM | times greater solubility than at pH 7.4 ([2]; pH 2 versus pH 7.4): ~10,000 times | times greater solubility than at pH 7.4 ([2]; pH 10 versus pH 7.4): ~500 times | resulting gallium concentration in lung fluid ([3]; assumed: 25 μL of pH 2 solution equilibrated to ~pH 7.4 in 20 mL lung fluid): ~12.5 µM | excess of concentration over equilibrium solubility at pH 7.4 ([3]; assumed: 25 μL of pH 2 solution in 20 mL lung fluid): ~12.5 fold | gallium likely to precipitate out of solution [3, 5]: 96% | gallium remaining soluble [3, 5]: 8%

NC[C@H]1O[C@H](O[C@H]2[C@H](O)[C@@H](O[C@H]3O[C@H](CO)[C@@H](O)[C@H](N)[C@H]3O)[C@H](N)C[C@@H]2N)[C@H](N)C[C@@H]1O [tobramycin]
solubility in water [4]: very soluble in water
